# pIC50: −log10 of the molar value.
# Target: T1, Recombinant purified human JAK3 (Homo sapiens, UniProt P52333)
# T1 construct: purchased Promega V9441
# T1 sequence (P52333 1-1124): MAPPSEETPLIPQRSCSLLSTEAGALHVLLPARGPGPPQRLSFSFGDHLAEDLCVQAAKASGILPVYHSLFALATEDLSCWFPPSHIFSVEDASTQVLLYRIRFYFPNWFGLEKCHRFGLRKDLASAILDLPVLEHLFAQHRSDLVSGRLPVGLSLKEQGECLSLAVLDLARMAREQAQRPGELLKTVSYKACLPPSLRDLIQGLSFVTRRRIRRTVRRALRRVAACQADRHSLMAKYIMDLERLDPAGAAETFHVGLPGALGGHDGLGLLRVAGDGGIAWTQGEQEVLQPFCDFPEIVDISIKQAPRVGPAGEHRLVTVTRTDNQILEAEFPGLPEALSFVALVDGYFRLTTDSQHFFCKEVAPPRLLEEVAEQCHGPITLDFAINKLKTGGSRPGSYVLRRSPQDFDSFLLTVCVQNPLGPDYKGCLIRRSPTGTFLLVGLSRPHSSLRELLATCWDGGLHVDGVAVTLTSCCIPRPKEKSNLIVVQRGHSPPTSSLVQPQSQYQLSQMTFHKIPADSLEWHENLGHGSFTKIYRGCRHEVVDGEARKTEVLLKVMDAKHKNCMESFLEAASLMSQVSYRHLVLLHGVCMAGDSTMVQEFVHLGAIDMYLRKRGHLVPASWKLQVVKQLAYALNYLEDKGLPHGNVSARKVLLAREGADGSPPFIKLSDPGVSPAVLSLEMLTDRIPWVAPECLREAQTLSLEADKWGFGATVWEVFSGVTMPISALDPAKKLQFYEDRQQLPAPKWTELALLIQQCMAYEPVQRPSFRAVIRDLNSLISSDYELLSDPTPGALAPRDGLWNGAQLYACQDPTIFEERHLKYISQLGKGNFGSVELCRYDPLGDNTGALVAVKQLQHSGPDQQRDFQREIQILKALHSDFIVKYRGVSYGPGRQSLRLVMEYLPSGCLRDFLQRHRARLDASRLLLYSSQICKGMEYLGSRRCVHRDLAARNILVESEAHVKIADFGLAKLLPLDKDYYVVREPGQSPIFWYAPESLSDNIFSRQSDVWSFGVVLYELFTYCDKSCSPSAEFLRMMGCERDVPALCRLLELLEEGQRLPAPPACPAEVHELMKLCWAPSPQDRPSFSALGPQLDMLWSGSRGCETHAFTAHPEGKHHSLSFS
# Assay: JAK3 inhibitory activity test (ADP-Glo kinase assay)
# Assay type: biochemical
# Settings: ATP 5 uM, 1 hour incubation at 30° C.
# Description: The inhibitory activities against JAK3 were measured for the compounds prepared in the above Examples through in vitro analysis on the ADP Glow (Glo) platform.
# Specifically, the inhibitory activities against JAK3 were measured using a JAK3 kinase assay kit (Promega, V9441), which was purchased from Promega. Recombinant purified human JAK3 was diluted with 1× kinase reaction buffer (JAK3: 40 mM Tris-CI, pH 7.5, 20 mM MgCl2, 0.1 mg/mL BSA and 50 uM OTT and added to a 96 well plate (JAK3: final concentration of 4 ng per reaction). The compounds prepared in the previous Examples were treated so as to be finally a 1% DMSO aqueous solution, and a substrate cocktail containing ATP (JAK3: final concentration of 5 uM) and 0.2 ug/ul of Poly(Glu4, Tyri) peptide (JAK3 final concentration) in the total 25 uL reactants was added to a 96-well plate to initiate enzymatic reaction. After incubation (30° C.) for 1 hour, equivalent volume (25 uL per reaction) of ADP Glo was added and incubated (30° C.) for 40 minutes at room temperature. Then, a kinase detection reagent (50 uL per reaction) was added and incubated (30° C.) for 30 minutes at room temperature. The kinase activity was measured by chemiluminescence according to the instructions of ADP Glo kinase assay kit, and the inhibitory activity of the compounds according to the present invention was calculated. For the analysis of the results of each compound, Microsoft Excel was used, and IC50 values were calculated by SigmaPlot software.
row,pIC50,Compound
1,9.33,"C=CC(=O)Nc1cccc(Oc2cccc3nc(Nc4ccc(N5CCN(C)CC5)cc4)nn23)c1 [Example 1, N-(3-(2-(4-(4-methylpiperazin-1-yl)phenylamino)-[1,2,4]triazolo[1,5-a]pyridin-5-yloxy)phenyl)acrylamide]"
2,8.96,"C=CC(=O)Nc1cccc(Oc2cccc3nc(Nc4cnn(C)c4)nn23)c1 [Example 2, N-(3-(2-(1-methyl-1H-pyrazol-4-ylamino)-[1,2,4]triazolo[1,5-a]pyridin-5-yloxy)phenyl)acrylamide]"
3,8.62,"C=CC(=O)Nc1cccc(Oc2cccc3nc(Nc4ccc5ncsc5c4)nn23)c1 [Example 3, N-(3-(2-(benzo[d]thiazol-6-ylamino)-[1,2,4]triazolo[1,5-a]pyridin-5-yloxy)phenyl)acrylamide]"
4,9.22,"C=CC(=O)Nc1cccc(Oc2cccc3nc(Nc4ccc(N5CCOCC5)cc4)nn23)c1 [Example 4, N-(3-(2-(4-morpholinophenylamino)-[1,2,4]triazolo[1,5-a]pyridin-5-yloxy)phenyl)acrylamide]"
5,7.45,"C=CC(=O)Nc1cccc(Oc2cccc3nc(Nc4cccc(Oc5ccccc5)c4)nn23)c1 [Example 5, N-(3-(2-(3-phenoxyphenylamino)-[1,2,4]triazolo[1,5-a]pyridin-5-yloxy)phenyl)acrylamide]"
6,8.68,"C=CC(=O)Nc1cccc(Oc2cccc3nc(Nc4ccc(N(C)C)cc4)nn23)c1 [Example 6, N-(3-(2-(4-(dimethylamino)phenylamino)-[1,2,4]triazolo[1,5-a]pyridin-5-yloxy)phenyl)acrylamide]"
7,8.92,"C=CC(=O)Nc1cccc(Oc2cccc3nc(Nc4cccc(-n5nnnc5C)c4)nn23)c1 [Example 7, N-(3-(2-(3-(5-methyl-1H-tetrazol-1-yl)phenylamino)-[1,2,4]triazolo[1,5-a]pyridin-5-yloxy)phenyl)acrylamide]"
8,8.89,"C=CC(=O)Nc1cccc(Oc2cccc3nc(Nc4cnn(C(F)F)c4)nn23)c1 [Example 8, N-(3-(2-(1-(difluoromethyl)-1H-pyrazol-4-ylamino)-[1,2,4]triazolo[1,5-a]pyridin-5-yloxy)phenyl)acrylamide]"
9,7.98,"C=CC(=O)Nc1cccc(Oc2cccc3nc(Nc4cccc(-n5nc(C)cc5C)c4)nn23)c1 [Example 9, N-(3-(2-(3-(3,5-dimethyl-1H-pyrazol-1-yl)phenylamino)-[1,2,4]triazolo[1,5-a]pyridin-5-yloxy)phenyl)acrylamide]"
10,8.44,"C=CC(=O)Nc1cccc(Oc2cccc3nc(Nc4ccc(-n5nc(C)cc5C)cc4)nn23)c1 [Example 10, N-(3-(2-(4-(3,5-dimethyl-1H-pyrazol-1-yl)phenylamino)-[1,2,4]triazolo[1,5-a]pyridin-5-yloxy)phenyl)acrylamide]"
11,7.99,"C=CC(=O)Nc1cccc(Oc2cccc3nc(Nc4ccc5nc(Cl)sc5c4)nn23)c1 [Example 11, N-(3-(2-(2-chlorobenzo[d]thiazol-6-ylamino)-[1,2,4]triazolo[1,5-a]pyridin-5-yloxy)phenyl)acrylamide]"
12,8.59,"C=CC(=O)Nc1cccc(Oc2cccc3nc(Nc4ccc5scnc5c4)nn23)c1 [Example 12, N-(3-(2-(benzo[d]thiazol-5-ylamino)-[1,2,4]triazolo[1,5-a]pyridin-5-yloxy)phenyl)acrylamide]"
13,8.01,"C=CC(=O)Nc1cccc(Oc2cccc3nc(Nc4ccc(Oc5ccccc5)cc4)nn23)c1 [Example 13, N-(3-(2-(4-phenoxyphenylamino)-[1,2,4]triazolo[1,5-a]pyridin-5-yloxy)phenyl)acrylamide]"
14,7.95,"C=CC(=O)Nc1cccc(Oc2cccc3nc(Nc4cnn(Cc5cccc(OC)c5)c4)nn23)c1 [Example 14, N-(3-(2-(1-(3-methoxybenzyl)-1H-pyrazol-4-ylamino)-[1,2,4]triazolo[1,5-a]pyridin-5-yloxy)phenyl)acrylamide]"
15,8.21,"C=CC(=O)Nc1cccc(Oc2cccc3nc(Nc4ccc(OCCN(CC)CC)cc4)nn23)c1 [Example 15, N-(3-(2-(4-(2-(diethylamino)ethoxy)phenylamino)-[1,2,4]triazolo[1,5-a]pyridin-5-yloxy)phenyl)acrylamide]"
16,9.15,"C=CC(=O)Nc1cccc(Oc2cccc3nc(Nc4ccc(CN(C)C)cc4)nn23)c1 [Example 16, N-(3-(2-(4-((dimethylamino)methyl)phenylamino)-[1,2,4]triazolo[1,5-a]pyridin-5-yloxy)phenyl)acrylamide]"
17,9.15,"C=CC(=O)Nc1cccc(Oc2cccc3nc(Nc4ccc(C(=O)N5CCOCC5)cc4)nn23)c1 [Example 17, N-(3-(2-(4-(morpholine-4-carbonyl)phenylamino)-[1,2,4]triazolo[1,5-a]pyridin-5-yloxy)phenyl)acrylamide]"
18,8.52,"C=CC(=O)Nc1cccc(Oc2cccc3nc(Nc4ccc(S(=O)(=O)N5CCCCC5)cc4)nn23)c1 [Example 18, N-(3-(2-(4-(piperidin-1-ylsulfonyl)phenylamino)-[1,2,4]triazolo[1,5-a]pyridin-5-yloxy)phenyl)acrylamide]"
19,8.29,"C=CC(=O)Nc1cccc(Oc2cccc3nc(Nc4cnn(CCN5CCOCC5)c4)nn23)c1 [Example 19, N-(3-(2-(1-(2-morpholinoethyl)-1H-pyrazol-4-ylamino)-[1,2,4]triazolo[1,5-a]pyridin-5-yloxy)phenyl)acrylamide]"
20,9.22,"CC#CC(=O)Nc1cccc(Oc2cccc3nc(Nc4ccc(N5CCN(C)CC5)cc4)nn23)c1 [Example 20, N-(3-(2-(4-(4-methylpiperazin-1-yl)phenylamino)-[1,2,4]triazolo[1,5-a]pyridin-5-yloxy)phenyl)but-2-ynamide]"
21,9.15,"C=CC(=O)Nc1cccc(Oc2cccc3nc(Nc4ccc(N5CCOCC5)nc4)nn23)c1 [Example 21, N-(3-(2-(6-morpholinopyridin-3-ylamino)-[1,2,4]triazolo[1,5-a]pyridin-5-yloxy)phenyl)acrylamide]"
22,< 6.40,"C=CC(=O)Nc1cccc(Oc2cccc3nc(Nc4nc5ccc(Cl)cc5s4)nn23)c1 [Example 22, N-(3-(2-(6-chlorobenzo[d]thiazol-2-ylamino)-[1,2,4]triazolo[1,5-a]pyridin-5-yloxy)phenyl)acrylamide]"
23,< 6.40,"C=CC(=O)Nc1cccc(Oc2cccc3nc(Nc4cccc5ccccc45)nn23)c1 [Example 23, N-(3-(2-(naphthalen-1-ylamino)-[1,2,4]triazolo[1,5-a]pyridin-5-yloxy)phenyl)acrylamide]"
24,7.81,"C=CC(=O)Nc1cccc(Oc2cccc3nc(Nc4cnc5ccccc5c4)nn23)c1 [Example 24, N-(3-(2-(quinolin-3-ylamino)-[1,2,4]triazolo[1,5-a]pyridin-5-yloxy)phenyl)acrylamide]"
25,6.98,"C=CC(=O)Nc1cccc(Oc2cccc3nc(Nc4cnc5onc(C)c5c4)nn23)c1 [Example 25, N-(3-(2-(3-methylisoxazolo[5,4-b]pyridin-5-ylamino)-[1,2,4]triazolo[1,5-a]pyridin-5-yloxy)phenyl)acrylamide]"
26,< 7.10,"C=CC(=O)Nc1cccc(Oc2cccc3nc(Nc4cnc5ncn(C)c5c4)nn23)c1 [Example 26, N-(3-(2-(1-methyl-1H-imidazo[4,5-b]pyridin-6-ylamino)-[1,2,4]triazolo[1,5-a]pyridin-5-yloxy)phenyl)acrylamide]"
27,8.89,"C=CC(=O)Nc1ccc(F)c(Oc2cccc3nc(Nc4ccc(N5CCOCC5)cc4)nn23)c1 [Example 27, N-(4-fluoro-3-(2-(4-morpholinophenylamino)-[1,2,4]triazolo[1,5-a]pyridin-5-yloxy)phenyl)acrylamide]"

# From patent US20220389010A1, “Novel Triazolopyridine Derivatives and Pharmaceutical Composition Comprising Same” (Daewoong Pharmaceutical Co., Ltd., priority 2019, published 2022)
